One may read the logP as a log measure of how a compound divides between an organic and an aqueous phase. A high value points to a more lipophilic compound. One may read the logD as lipophilicity at a set pH, counting ionised and neutral species. A low value points to a more hydrophilic compound. As a reminder, the pKa is the negative logarithm of the acid dissociation constant. Read a high pKa as a group that holds its proton tightly. The term Ki denotes a dissociation constant, usually derived from enzyme kinetics or from competition with a known ligand.

Some results are limits rather than exact numbers.

We go through 16 compounds from ChEMBL document CHEMBL1140855, “Design, synthesis, and binding affinities of potential positron emission tomography (PET) ligands with optimal lipophilicity for brain imaging of the dopamine D3 receptor. Part II” (Bioorg Med Chem, 2009).

Series [1] can be described thus: Lipophilicity, log P of the compound. The format is physicochemical. As to conditions: octanol/water.
Series [2] can be described thus: Lipophilicity, log P at pH 7.4. The format is physicochemical. To be noted: buffer.
Series [3] is described as follows: Dissociation constant, pKa of the compound. Type of series: physicochemical.
In series [4] the target is D(3) dopamine receptor (Homo sapiens, UniProt P35462).
D(3) dopamine receptor, sequence (P35462 whole entry): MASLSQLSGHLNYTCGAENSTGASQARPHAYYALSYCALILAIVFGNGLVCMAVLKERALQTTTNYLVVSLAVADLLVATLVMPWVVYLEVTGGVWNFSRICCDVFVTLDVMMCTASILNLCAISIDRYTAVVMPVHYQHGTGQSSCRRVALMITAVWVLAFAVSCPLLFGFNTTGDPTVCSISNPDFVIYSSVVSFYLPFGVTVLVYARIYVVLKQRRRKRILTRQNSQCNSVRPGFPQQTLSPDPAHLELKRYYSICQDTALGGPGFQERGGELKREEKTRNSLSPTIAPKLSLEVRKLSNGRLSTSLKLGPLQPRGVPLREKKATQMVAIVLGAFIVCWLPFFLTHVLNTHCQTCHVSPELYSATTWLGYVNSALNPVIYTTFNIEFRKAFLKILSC
Description: Displacement of [3H]spiroperidol from human cloned dopamine D3 receptor by liquid scintillation counting
The target of series [5] is D(2) dopamine receptor (Homo sapiens, UniProt P14416).
D(2) dopamine receptor, sequence (P14416 whole entry): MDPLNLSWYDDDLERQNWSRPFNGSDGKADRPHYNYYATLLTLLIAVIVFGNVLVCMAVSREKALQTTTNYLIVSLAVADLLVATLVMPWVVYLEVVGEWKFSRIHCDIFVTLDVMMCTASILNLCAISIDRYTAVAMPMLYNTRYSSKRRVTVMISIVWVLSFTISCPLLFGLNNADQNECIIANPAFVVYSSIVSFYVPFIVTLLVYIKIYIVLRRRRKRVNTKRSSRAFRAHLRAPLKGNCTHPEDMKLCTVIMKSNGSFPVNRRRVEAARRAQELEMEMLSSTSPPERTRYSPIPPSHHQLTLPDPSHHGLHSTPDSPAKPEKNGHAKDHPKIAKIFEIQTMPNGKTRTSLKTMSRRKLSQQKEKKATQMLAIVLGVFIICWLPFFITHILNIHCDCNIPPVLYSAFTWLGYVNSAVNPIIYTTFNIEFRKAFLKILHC
Description: Displacement of [3H]spiroperidol from human cloned dopamine D2L receptor by liquid scintillation counting

With `COc1ccccc1N1CCN(CCCCNC(=O)c2ccc(-n3ccnc3)cc2)CC1`, the log partition coefficient (logP) in series [1] worked out at 3.1. Further, the logD in series [2] is 2.39. In series [3], this compound returned a pKa of 8.05. Further, the Ki in series [4] turned out to be 4.23 nM; in series [5], 51.7 nM.

In series [4], `CCCN(CCC)C1CCc2cc(CS(=O)(=O)c3ccc(OC)cc3)ccc2C1` (configuration not stated) gave a Ki of 1.3 nM.

The compound `COc1ccccc1N1CCN(CCCCNC(=O)c2ccc3nonc3c2)CC1` displayed a log partition coefficient (logP) in series [1] of 2.79. In addition, the logD in series [2] was found to be 2.26. Further, in series [3], the pKa was found to be 7.78. Moreover, the Ki is 4.7 nM in series [4] and 31 nM in series [5].

`COc1ccc(N2CCN(CCCCNC(=O)c3ccc4nonc4c3)CC2)cc1` had a lipophilicity (logP) in series [1] of 2.77. Moreover, the logD in series [2] is 2.41. Also, the pKa in series [3] came to 7.51. The Ki in series [4] is 6220 nM; in series [5], over 1000 nM.

For `COc1ccccc1N1CCN(CCCNC(=O)c2ccc3nonc3c2)CC1`, the logP in series [1] turned out to be 2.66. Moreover, the logD in series [2] came to 2.34. The compound further came in with a pKa in series [3] of 7.43. Moreover, the Ki in series [4] is over 1000 nM; in series [5], 89.4 nM.

With `O=C(NCCCCN1CCN(c2ccccc2OCCF)CC1)c1ccc(-n2ccnc2)cc1`, the logP in series [1] was 2.9. The compound further returned a logD in series [2] of 2.4. The pKa in series [3] was found to be 7.74. Moreover, the Ki in series [4] was 2.95 nM; in series [5], 5.92 nM.

In turn, `COc1ccc(N2CCN(CCCCNC(=O)c3ccc(-n4ccnc4)cc3)CC2)cc1` had a logP in series [1] of 2.8. Moreover, in series [2], the logD came to 2.37. Also, the pKa in series [3] is 7.64. The Ki is 211 nM in series [4] and over 1000 nM in series [5].

On to `COc1cc(F)cc(N2CCN(CCCCNC(=O)c3ccc4nonc4c3)CC2)c1`, for which, in series [1], the logP stood at 3.34. For the same compound, the logD in series [2] was found to be 3.12. In addition, the pKa in series [3] came out at 7.34. The inhibition constant (Ki) in series [4] was 658 nM; in series [5], 1340 nM.

In series [1], `COc1cccc(N2CCN(CCCCNC(=O)c3ccc4nonc4c3)CC2)c1` registered a logP of 2.8. This compound showed a logD in series [2] of 2.48. In series [3], this compound had a pKa of 7.44. The Ki in series [4] is 170 nM; in series [5] it was over 100 nM.

`O=C(NCCCCN1CCN(c2cccc(OCCF)c2)CC1)c1ccc(-n2ccnc2)cc1`: the logP in series [1] was found to be 2.9. In series [2], this compound registered a logD of 2.51. Moreover, the pKa in series [3] amounted to 7.56. Moreover, the Ki in series [4] was 47.2 nM; in series [5], 196 nM.

For `O=C(NCCCCN1CCN(c2cccc(OCCF)c2)CC1)c1ccc2nonc2c1`, the logP in series [1] was 2.87. The logD in series [2] is 2.53. Also, the pKa in series [3] was found to be 7.47. In addition, the results for the Ki in series [4] and in series [5] were 226 nM and over 1000 nM, respectively.

In series [4], `COc1ccccc1N1CCN(CCCCOc2ccc(C3CN4C=CSC4=N3)cc2)CC1` (configuration not stated) gave an inhibition constant (Ki) of 0.12 nM.

The compound `COc1ccccc1N1CCN(CCCNC(=O)c2ccc(-n3ccnc3)cc2)CC1` displayed a logP in series [1] of 2.59. The compound also displayed a logD in series [2] of 2.22. This compound also registered a pKa in series [3] of 7.53. Moreover, the Ki in series [4] amounted to 95.3 nM; in series [5] it was 121 nM.

Turning to `COc1cccc(N2CCN(CCCCNC(=O)c3ccc(-n4ccnc4)cc3)CC2)c1`, the logP in series [1] is 2.93. The compound also displayed a log distribution coefficient (logD) in series [2] of 2.51. In series [3], this compound returned a pKa of 7.59. Moreover, the Ki in series [4] was found to be 19.9 nM; in series [5], 243 nM.

`COc1cc(F)cc(N2CCN(CCCCNC(=O)c3ccc(-n4ccnc4)cc3)CC2)c1` had a logP in series [1] of 3.16. For the same compound, in series [2], the logD stood at 2.8. The pKa in series [3] turned out to be 7.52. Besides, the Ki in series [4] amounted to 29.2 nM; in series [5], 133 nM.

The compound `O=C(NCCCCN1CCN(c2ccccc2OCCF)CC1)c1ccc2nonc2c1` showed a log partition coefficient (logP) in series [1] of 2.79. In series [2], this compound yielded a logD of 2.26. The pKa in series [3] amounted to 7.78. Further, the Ki in series [4] was 22.1 nM; in series [5] it was 17.8 nM.
